Tests used:
Assay in all cases: relative viability (nuclei count vs DMSO), 5 days (fraction); higher = more cells survive
Sulindac + Bortezomib = compound: CC1=C(CC(=O)O)c2cc(F)ccc2/C1=C\c1ccc([S+](C)[O-])cc1 [Sulindac] + CC(C)C[C@H](NC(=O)[C@H](Cc1ccccc1)NC(=O)c1cnccn1)B(O)O [Bortezomib] (partner 0.002 µM)
How it was run: (§1)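 Five library-drug doses in √10 steps were combined with a fixed anchor-drug dose, or a single drug was given alone, by pin tool to lung cancer cell lines in 1536-well plates the day after seeding. Nuclei were stained and counted after 5 days. Relative viability is the nuclei count in treated wells over that in vehicle wells, taken as the median of duplicate plates.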

[1] = compound: CN[C@@H]1C[C@H]2O[C@@](C)([C@@H]1OC)n1c3ccccc3c3c4c(c5c6ccccc6n2c5c31)C(=O)NC4 [Staurosporine] + C[C@@H](Oc1cc(-c2cnn(C3CCNCC3)c2)cnc1N)c1c(Cl)ccc(F)c1Cl [Crizotinib] (partner 1 µM)
How it was run: as §1

[2] = compound: CN[C@@H]1C[C@H]2O[C@@](C)([C@@H]1OC)n1c3ccccc3c3c4c(c5c6ccccc6n2c5c31)C(=O)NC4 [Staurosporine] + CC(C)C[C@H](NC(=O)[C@H](Cc1ccccc1)NC(=O)c1cnccn1)B(O)O [Bortezomib] (partner 0.002 µM)
How it was run: as §1

[3] = compound: CN[C@@H]1C[C@H]2O[C@@](C)([C@@H]1OC)n1c3ccccc3c3c4c(c5c6ccccc6n2c5c31)C(=O)NC4 [Staurosporine] + Cc1nc(Nc2ncc(C(=O)Nc3c(C)cccc3Cl)s2)cc(N2CCN(CCO)CC2)n1 [Dasatinib] (partner 0.075 µM)
How it was run: as §1

Row | Cell Line | relative viability (Sulindac + Bortezomib; first compound 0.08 µM) | relative viability (Sulindac + Bortezomib; first compound 0.253 µM) | relative viability (Sulindac + Bortezomib; first compound 0.8 µM) | relative viability (Sulindac + Bortezomib; first compound 2.53 µM) | relative viability (Sulindac + Bortezomib; first compound 8 µM) | relative viability ([1]; first compound 0.005 µM) | relative viability ([1]; first compound 0.01581 µM) | relative viability ([1]; first compound 0.05 µM) | relative viability ([1]; first compound 0.1581 µM) | relative viability ([1]; first compound 0.5 µM) | relative viability ([2]; first compound 0.005 µM) | relative viability ([2]; first compound 0.01581 µM) | relative viability ([2]; first compound 0.05 µM) | relative viability ([2]; first compound 0.1581 µM) | relative viability ([2]; first compound 0.5 µM) | relative viability ([3]; first compound 0.005 µM) | relative viability ([3]; first compound 0.01581 µM) | relative viability ([3]; first compound 0.05 µM) | relative viability ([3]; first compound 0.1581 µM) | relative viability ([3]; first compound 0.5 µM)
1 | NCI-H596 | 1.04 | 1.08 | 0.831 | 1 | 1.21 | 1.16 | 0.959 | 0.447 | 0.189 | 0.156 | 1.38 | 0.549 | 1 | 0.282 | 0.393 | 0.7 | 0.467 | 0.276 | 0.226 | 0.183
2 | LOU-NH91 | 0.554 | 0.516 | 0.601 | 0.531 | 0.459 | 0.721 | 0.594 | 0.493 | 0.413 | 0.325 | 0.519 | 0.461 | 0.54 | 0.369 | 0.374 | 0.36 | 0.285 | 0.299 | 0.286 | 0.203
3 | NCI-H1651 | 1.01 | 0.953 |  | 0.958 | 1.04 | 0.945 | 0.765 | 0.575 | 0.549 | 0.385 | 0.997 | 0.772 | 0.661 | 0.368 | 0.349 | 0.335 | 0.211 | 0.239 | 0.107 | 0.0833
4 | NCI-H520 | 0.585 | 0.599 | 0.51 | 0.399 | 0.764 | 0.711 | 0.448 | 0.279 | 0.188 | 0.11 | 0.716 | 0.128 | 0.307 | 0.207 | 0.117 | 0.278 | 0.251 | 0.215 | 0.176 | 0.171

From the supplement of paper PMC10307832
